Experimental data reported in patent publication US6225307A, “Viral treatment” (priority 2000, dated 2001).

Tests used:
HIV-1 cell line, CEMSKI = experiment: Long term in vitro study, CEMSKI cells, reverse transcriptase analysis; assay type: cell-based; conditions: for Reverse transcriptase data: 7 μg/ml
Experimental: A microtiter-based reveres transcriptase (RT) reaction is utilized (Buckheit et al (1991) AIDS Research and Human Retroviruses 7:295-302). Tritiated thymidine triphosphate (NEN)(TTP) is resuspended in distilled water at 5 Ci/ml. Poly rA and oligo dT are prepared as a stock solution which is kept at -20° C. The RT reaction buffer is prepared fresh on a daily basis and consists of 125 μl 1M EGTA, 125 μl water, 125 μl Triton X-100, 50 μl Tris (pH 7.4), 50 μl MDDT, and 40 μl 1M MgCl2. These three solutions are mixed together in a ratio of 1 part TTP, 2.5 parts poly rA:oligo dT, 2.5 parts reaction buffer and 4 parts distilled water. Ten microliters of this reaction mixture is placed in a round bottom microtiter place and 15 μl of virus containing supernatant is added and mixed. The plate is incubated at 37° C. and incubated for 60 minutes. Following reaction, the reaction volume is spotted onto filter mats, washed 6 times for 5 minutes each in a 5% sodium phosphate buffer, 2 times for 1 minute each in distilled water, 2 times for 1 minute each in 70% ethanol, and then dried. The dried filter mat is placed in a plastic sample bag, Betaplate scintillation fluid is added and the bag is heat sealed. Incorporated radioactivity is quantified utilizing a Wallac Microbeta scintillation counter.
Acute infection of most established human cell lines with HIV- I results in the eventual establishment of a constitutive virus-producing chronically infected cell line. The cells can be passaged for long periods of time in culture without loss of virus production. These cells may be utilized to evaluate the effects of anti-HIV compounds on syncytium formation or to evaluate the effects of anti-HIV compounds on levels of virus production from these cells. […] Each of the cells contains an integrated HIV genome or provirus. […]
CEM-SS cells chronically infected with HIV isolate, for example SKI (CEM-SKI) are cultured in RPM1640 tissue culture medium supplemented with 10% fetal bovine serum and antibiotics. […] After a period of time, usually one week intervals of drug treatment, cells are evaluated to determine if the inhibitory activity of the compound has been affected by treatment of the cells with either compounds. […]
The cell populations contain integrated copies of the HIV genome and constitutively produce HIV at relatively high levels or are latently infected and only produce virus after stimulation with phorbol esters, tumor necrosis factor or IL6(U1 and ACH2). Reductions in virus products were observed when quantifying supernatant reverse transcriptase activity,
Toxicity Values are measured by XTT and activity of the compound in the tests is measured by a Reverse Transcriptase analysis. […]

HIV-1 integrase = HIV-1 integrase (Human immunodeficiency virus type 1 group M subtype B, UniProt P12497); experiment: Integrase inhibition assay; assay type: biochemical
Source text: A biochemical integrase assay described by Craigie et at (HIV, vol. 2: A practical Approach) Biochemistry, Molecular Biology and Drug Discovery Ed. J. Karn 1995) to screen agents for their ability to inhibit HIV-1 integrase. In this system, a kinased oligonucleotide serves as the target of 3' processing and the subsequent strand transfer reaction. The 3' processing reaction involves the removal of 2 nucleotides from the 31 ends of the substrate and this is followed by the strand transfer reaction in which the 3' ends are joined to the exposed 5' ends. The 20 μl reaction mixture contains 25 mM MOPS (pH 7.2), […] BSA, 10 mM , β-mercaptoethanol, 10% glycerol, 7.5 mM MnCl2, 25 nM (7 ng) substrate (Oligo's Etc., Wilsonville, Ore.) and 200 nM (128 ng) integrase (NIAID AIDS Research and Reference Reagent Program, Bethesda, Md.). The reaction proceeds at 37° C. for 1-2 hours and is terminated by the addition of 20 μl of sequencing stop solution (USB Amersham, Arlington Heights, Ill.). The reaction products are visualized by autoradiography following electrophoresis in 15% polyacrylamide 6M Urea gel. The substrate migrates as a 30 mer, the product of 3' processing migrates as an N-2 band and the strand transfer products migrate more slowly at various sizes larger than the substrate.

## CCC1(c2cccc(OC(=O)Nc3ccc(Cl)cc3)c2)CCCCN(C)C1=O (stereo not shown) [(4-chlorophenyl)-carbamic acid, 3-(hexahydro-3-ethyl-1-methyl-2-oxo-1H-azepin-3-yl) 2 phenyl ester]
HIV-1 cell line, CEMSKI; Day 4
  Reverse transcriptase data: 8474
HIV-1 cell line, CEMSKI; Day 11
  Reverse transcriptase data: 7217
HIV-1 cell line, CEMSKI; Day 18
  Reverse transcriptase data: 9141
HIV-1 cell line, CEMSKI; run through 222 days
  Reverse transcriptase data, continued test: data remained consistent
HIV-1 integrase
  IC50: > 249 µM
  activity as an integrase inhibitor: did not show activity
HIV-1 integrase; 0.1 μg/ml
  HIV-1 integrase inhibition, mean: 9908
  HIV-1 integrase inhibition, sample 1: 10151.6
  HIV-1 integrase inhibition, sample 2: 9664.3
HIV-1 integrase; 0.1 μg/ml, read-out: % no drug control
  remaining activity at 0.1 µg/mL: 104%
HIV-1 integrase; 1 μg/ml
  HIV-1 integrase inhibition, mean: 10075
  HIV-1 integrase inhibition, sample 1: 9644.6
  HIV-1 integrase inhibition, sample 2: 10505.5
HIV-1 integrase; 1 μg/ml, read-out: % no drug control
  remaining activity at 1 µg/mL: 105%
HIV-1 integrase; 10 μg/ml
  HIV-1 integrase inhibition, mean: 10097
  HIV-1 integrase inhibition, sample 1: 10964.5
  HIV-1 integrase inhibition, sample 2: 1129.7
HIV-1 integrase; 10 μg/ml, read-out: % no drug control
  remaining activity at 10 µg/mL: 116%
HIV-1 integrase; 100 μg/ml
  HIV-1 integrase inhibition, mean: 10942
  HIV-1 integrase inhibition, sample 1: 9648.5
  HIV-1 integrase inhibition, sample 2: 12235.7
HIV-1 integrase; 100 μg/ml, read-out: % no drug control
  remaining activity at 100 µg/mL: 114%
